Laboratory results reported in ChEMBL document CHEMBL1201862, “PubChem BioAssay data set” (2004).
Activity calls are given as the source filed them.

Legend:
[1] = molecular target: T1, Oxysterols receptor LXR-beta (Homo sapiens, UniProt P55055); assay type: functional, cell-based;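 note: Cell-based luminescence dose-response assay of agonist activity at LXR, run as a confirmatory counterscreen to a daf-12 agonist screen; HEK293 cells with Gal4-LXR fusion and GAL4-driven luciferase reporter; agonist potency from rising luciferase signal of a Gal4-LXR reporter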
T1 sequence (P55055 whole entry): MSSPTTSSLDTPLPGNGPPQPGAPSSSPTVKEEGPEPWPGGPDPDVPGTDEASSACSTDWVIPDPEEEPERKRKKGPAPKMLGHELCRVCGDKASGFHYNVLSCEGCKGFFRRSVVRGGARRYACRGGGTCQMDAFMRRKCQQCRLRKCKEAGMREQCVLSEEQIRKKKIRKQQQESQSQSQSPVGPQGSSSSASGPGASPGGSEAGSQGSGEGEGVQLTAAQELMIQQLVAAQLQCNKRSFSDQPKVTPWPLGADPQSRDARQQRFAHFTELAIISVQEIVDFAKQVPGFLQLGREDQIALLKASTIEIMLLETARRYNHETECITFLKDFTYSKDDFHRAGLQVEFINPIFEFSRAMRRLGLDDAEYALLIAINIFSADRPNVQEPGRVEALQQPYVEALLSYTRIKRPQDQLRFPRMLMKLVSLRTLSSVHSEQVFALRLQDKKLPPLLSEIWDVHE

cells [2] = test: cells
[3] = control 3'UTR Renilla luciferase suppression, dose response, counter-screen for Shn3 inhibitor project, cell-based, Clone20-Shn3RL, cherry-picked (AID 624133); assay type: functional
[4] = inhibitors of control Renilla luciferase reporter, dose response, counter-screen for Shn3 3'UTR targeting project, Clone20-Shn3RL cells, dual-Glo, cherry-pick, set 2 (AID 720724); assay type: functional, cell-based; details: Dual-Go Shn3RL
[5] = Shn3 3'UTR reporter inhibitors, dose response, cell-based, Clone20 osteoblasts, firefly luciferase, cherry-picked (AID 624132); assay type: functional;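 note: firefly luciferase luminescence from reporter carrying the Shn3 3'UTR in osteoblasts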
[6] = reduction of Shn3 3'UTR firefly luciferase signal, dose response, Schnurri-3 inhibitor project, cell-based, Clone20 osteoblasts, cherry-pick, set 2 (AID 720490); assay type: functional;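 note: actives lower the luminescence signal as inhibitors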
[7] = molecular target: Peroxisome proliferator-activated receptor gamma/Nuclear receptor coactivator 2 (Homo sapiens, UniProt P37231); test: (§1) TR-FRET dose response biochemical High Throughput Screening assay for agonists of the steroid receptor coactivator 2 (SRC-2) recruitment by the peroxisome proliferator-activated receptor gamma (PPAR gamma): non-selective agonists. [Related pubchem assays: 1297, 1032 ]; assay type: functional
Fibrinogen beta chain [8] = molecular target: T2, Fibrinogen beta chain (Homo sapiens, UniProt P02675); test: Fluorescence polarization-based biochemical high throughput dose response assay to identify inhibitors that disrupt the binding of a cyclic peptide (Tn6) to the fibrin proteolytic product D-Dimer and fragment E complex [DD(E )].
T2 sequence (P02675 whole entry, the tested form may be a part): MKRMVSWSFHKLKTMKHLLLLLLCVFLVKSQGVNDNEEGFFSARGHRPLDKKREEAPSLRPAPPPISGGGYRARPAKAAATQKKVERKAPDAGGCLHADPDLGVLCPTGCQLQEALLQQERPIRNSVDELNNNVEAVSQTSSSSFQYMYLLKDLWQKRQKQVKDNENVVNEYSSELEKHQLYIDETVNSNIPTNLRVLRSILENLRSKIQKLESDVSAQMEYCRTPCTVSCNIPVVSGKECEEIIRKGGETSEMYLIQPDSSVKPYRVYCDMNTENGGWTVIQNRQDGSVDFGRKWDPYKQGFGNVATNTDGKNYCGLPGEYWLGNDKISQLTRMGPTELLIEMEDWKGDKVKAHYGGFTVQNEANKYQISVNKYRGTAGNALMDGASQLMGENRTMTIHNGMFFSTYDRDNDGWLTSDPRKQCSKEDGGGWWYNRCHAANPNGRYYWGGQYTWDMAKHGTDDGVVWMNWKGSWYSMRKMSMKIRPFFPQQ

[9] = molecular target: Peroxisome proliferator-activated receptor gamma/Nuclear receptor coactivator 1 (Homo sapiens, UniProt P37231); test: as §1, with “1 (SRC-1)” for “2 (SRC-2)”, “assays (depositor defined):AID1300, AID1808, AID504735, AID631]” for “assays: 1297, 1032 ]”; assay type: protein assay
[10] = molecular target: T3, Polyadenylate-binding protein 1 (Homo sapiens, UniProt P11940); test: PABP1 MLLE–PAM2 binding inhibitor potency, dose response, biochemical, fluorescence polarization, FITC-PAM2 peptide (AID 602259); assay type: functional; details: read-out: IC50_Mean
T3 sequence (P11940 whole entry, the tested form may be a part): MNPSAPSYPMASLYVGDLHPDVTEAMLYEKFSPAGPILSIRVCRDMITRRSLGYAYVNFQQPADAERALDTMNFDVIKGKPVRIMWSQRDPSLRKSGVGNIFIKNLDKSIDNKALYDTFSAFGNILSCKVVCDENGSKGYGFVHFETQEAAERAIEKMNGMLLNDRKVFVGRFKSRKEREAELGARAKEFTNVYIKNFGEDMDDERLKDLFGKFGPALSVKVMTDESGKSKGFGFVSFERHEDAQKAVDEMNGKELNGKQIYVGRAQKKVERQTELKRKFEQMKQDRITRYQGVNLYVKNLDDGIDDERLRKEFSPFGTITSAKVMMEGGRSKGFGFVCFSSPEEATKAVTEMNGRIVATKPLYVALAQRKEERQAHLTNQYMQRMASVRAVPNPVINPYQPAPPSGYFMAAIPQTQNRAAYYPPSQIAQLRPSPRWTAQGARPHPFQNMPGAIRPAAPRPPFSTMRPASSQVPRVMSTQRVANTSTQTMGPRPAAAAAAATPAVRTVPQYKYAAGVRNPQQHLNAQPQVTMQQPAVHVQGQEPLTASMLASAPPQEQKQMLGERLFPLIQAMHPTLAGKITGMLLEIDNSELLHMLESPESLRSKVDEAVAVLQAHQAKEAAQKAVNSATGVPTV

Fibrinogen beta chain [11] = molecular target: T2, Fibrinogen beta chain; test: Fluorescence polarization-based biochemical high throughput dose response assay to identify inhibitors that disrupt the binding of a cyclic peptide (Tn7) to the fibrin proteolytic product D-Dimer and fragment E complex [DD(E )].
[12] = molecular target: Peroxisome proliferator-activated receptor gamma/Nuclear receptor coactivator 3 (Homo sapiens, UniProt P37231); test: as §1, with “3 (SRC-3)” for “2 (SRC-2)”, “1301 (Confirmation screen.), 1048 (Primary screen.)]” for “1297, 1032 ]”; assay type: functional
Chain of Peroxisome proliferator-activated receptor gamma/Nuclear receptor coactivator 3 (P37231 whole entry): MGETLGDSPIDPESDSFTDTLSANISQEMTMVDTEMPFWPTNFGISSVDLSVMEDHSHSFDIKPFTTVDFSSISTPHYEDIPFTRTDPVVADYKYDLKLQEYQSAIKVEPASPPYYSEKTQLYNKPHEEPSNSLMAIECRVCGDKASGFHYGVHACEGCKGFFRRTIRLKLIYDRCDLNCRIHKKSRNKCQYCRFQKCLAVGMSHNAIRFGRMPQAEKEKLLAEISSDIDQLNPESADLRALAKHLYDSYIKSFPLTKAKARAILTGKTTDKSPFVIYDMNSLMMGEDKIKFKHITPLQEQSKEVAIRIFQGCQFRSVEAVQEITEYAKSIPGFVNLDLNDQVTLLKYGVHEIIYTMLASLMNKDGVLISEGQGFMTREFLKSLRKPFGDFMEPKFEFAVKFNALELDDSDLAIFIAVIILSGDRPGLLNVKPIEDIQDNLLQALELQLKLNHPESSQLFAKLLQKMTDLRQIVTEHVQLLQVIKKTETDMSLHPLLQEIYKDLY
Chain of Peroxisome proliferator-activated receptor gamma/Nuclear receptor coactivator 3 (Q9Y6Q9 whole entry, further chain): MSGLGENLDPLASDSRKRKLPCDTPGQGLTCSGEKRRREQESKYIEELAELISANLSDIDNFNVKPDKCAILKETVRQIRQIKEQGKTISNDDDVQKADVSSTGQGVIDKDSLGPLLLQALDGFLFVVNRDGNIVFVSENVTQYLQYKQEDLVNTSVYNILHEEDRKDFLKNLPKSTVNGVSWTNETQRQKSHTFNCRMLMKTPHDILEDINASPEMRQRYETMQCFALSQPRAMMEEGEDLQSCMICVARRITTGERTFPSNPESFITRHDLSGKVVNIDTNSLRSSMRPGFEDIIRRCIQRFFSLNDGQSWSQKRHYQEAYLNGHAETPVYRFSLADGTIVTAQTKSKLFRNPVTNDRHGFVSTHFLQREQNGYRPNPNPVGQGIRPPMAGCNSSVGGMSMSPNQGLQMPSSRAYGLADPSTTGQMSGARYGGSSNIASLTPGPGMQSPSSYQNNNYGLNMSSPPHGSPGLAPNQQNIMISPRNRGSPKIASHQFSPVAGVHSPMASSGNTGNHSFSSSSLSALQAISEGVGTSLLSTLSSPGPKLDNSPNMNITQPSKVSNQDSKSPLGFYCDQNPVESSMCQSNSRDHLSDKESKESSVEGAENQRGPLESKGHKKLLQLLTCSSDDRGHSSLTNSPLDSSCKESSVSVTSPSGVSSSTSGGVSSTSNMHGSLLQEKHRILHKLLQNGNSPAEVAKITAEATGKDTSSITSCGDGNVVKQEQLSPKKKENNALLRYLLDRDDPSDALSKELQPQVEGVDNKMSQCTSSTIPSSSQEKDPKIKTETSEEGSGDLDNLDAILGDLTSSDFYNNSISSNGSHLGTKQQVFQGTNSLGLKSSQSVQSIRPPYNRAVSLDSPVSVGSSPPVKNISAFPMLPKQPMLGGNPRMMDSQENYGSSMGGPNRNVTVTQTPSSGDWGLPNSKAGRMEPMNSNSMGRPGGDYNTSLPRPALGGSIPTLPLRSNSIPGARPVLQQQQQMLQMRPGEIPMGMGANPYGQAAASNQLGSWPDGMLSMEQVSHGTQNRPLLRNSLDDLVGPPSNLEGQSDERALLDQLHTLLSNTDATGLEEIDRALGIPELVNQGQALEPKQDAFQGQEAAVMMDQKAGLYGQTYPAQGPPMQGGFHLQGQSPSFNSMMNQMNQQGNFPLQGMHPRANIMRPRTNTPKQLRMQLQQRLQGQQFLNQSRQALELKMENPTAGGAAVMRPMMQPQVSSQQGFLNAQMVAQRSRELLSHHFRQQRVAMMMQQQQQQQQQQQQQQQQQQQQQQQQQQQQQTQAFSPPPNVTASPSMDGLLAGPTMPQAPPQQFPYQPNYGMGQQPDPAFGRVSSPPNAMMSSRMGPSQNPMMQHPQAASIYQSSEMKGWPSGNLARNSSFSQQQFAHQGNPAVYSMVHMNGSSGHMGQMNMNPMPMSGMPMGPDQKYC

[13] = molecular target: T3, Polyadenylate-binding protein 1; test: PABP1 MLLE–PAM2 interaction inhibitors, dose response, miRNA deadenylation inhibitor project, biochemical, fluorescence polarization, Cy5-PAM2 peptide, secondary (AID 602260); assay type: functional; details: read-out: IC50_Mean
Nonstructural protein 1 = Nonstructural protein 1 (Influenza A virus, UniProt Q194T2); assay type: functional, Influenza A virus (A/California/07/2009(H1N1))
Chain of Nonstructural protein 1 (Q194T2 whole entry): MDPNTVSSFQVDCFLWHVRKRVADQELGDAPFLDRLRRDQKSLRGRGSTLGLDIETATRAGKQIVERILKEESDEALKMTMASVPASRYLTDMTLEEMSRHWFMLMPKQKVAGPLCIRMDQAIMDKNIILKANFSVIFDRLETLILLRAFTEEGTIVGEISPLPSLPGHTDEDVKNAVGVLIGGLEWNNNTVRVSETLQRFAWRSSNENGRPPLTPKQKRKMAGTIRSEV

[14] = molecular target: C-X-C chemokine receptor type 4 (Homo sapiens, UniProt P61073); test: SAR analysis of small molecule antagonists of the CXCR6 receptor using a CXCR4 receptor luminescent beta-arrestin counterscreen.; assay type: functional
Chain of C-X-C chemokine receptor type 4 (P61073 whole entry): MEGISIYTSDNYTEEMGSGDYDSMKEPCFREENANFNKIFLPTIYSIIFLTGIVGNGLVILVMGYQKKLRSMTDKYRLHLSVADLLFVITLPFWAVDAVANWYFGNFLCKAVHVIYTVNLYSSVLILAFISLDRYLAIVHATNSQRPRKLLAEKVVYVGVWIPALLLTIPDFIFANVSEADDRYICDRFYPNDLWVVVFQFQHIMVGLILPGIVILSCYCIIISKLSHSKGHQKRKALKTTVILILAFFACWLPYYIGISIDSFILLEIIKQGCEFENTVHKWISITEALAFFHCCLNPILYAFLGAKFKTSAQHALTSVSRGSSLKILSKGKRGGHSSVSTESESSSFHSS

[15] = molecular target: C-C chemokine receptor type 6 (Homo sapiens, UniProt P51684); test: SAR analysis of small molecule antagonists of the CXCR6 receptor using a CCR6 receptor luminescent beta-arrestin counterscreen.; assay type: functional
Chain of C-C chemokine receptor type 6 (P51684 whole entry): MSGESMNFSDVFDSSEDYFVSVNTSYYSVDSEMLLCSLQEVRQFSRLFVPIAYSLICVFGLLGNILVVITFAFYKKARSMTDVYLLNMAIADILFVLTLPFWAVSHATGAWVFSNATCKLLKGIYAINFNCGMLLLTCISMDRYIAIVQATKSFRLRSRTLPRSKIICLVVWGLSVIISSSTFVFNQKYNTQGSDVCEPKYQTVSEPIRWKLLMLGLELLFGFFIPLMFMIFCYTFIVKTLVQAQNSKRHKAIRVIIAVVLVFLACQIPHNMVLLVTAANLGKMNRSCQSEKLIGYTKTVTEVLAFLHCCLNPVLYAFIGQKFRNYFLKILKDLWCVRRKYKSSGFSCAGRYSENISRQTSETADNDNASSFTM

[16] = Late stage counterscreen for inhibitors of Trypanosoma brucei methionyl tRNA synthetase (MetRS): Luminescence-based cell-based high throughput dose response assay to identify compounds that are cytotoxic to Jurkat human T lymphocyte cells.; assay type: functional
[17] = molecular target: T4, Methionyl-tRNA synthetase, putative (Trypanosoma brucei brucei, UniProt Q38C91); assay type: functional, Trypanosoma brucei brucei strain 927/4 GUTat10.1
T4 sequence (Q38C91 whole entry): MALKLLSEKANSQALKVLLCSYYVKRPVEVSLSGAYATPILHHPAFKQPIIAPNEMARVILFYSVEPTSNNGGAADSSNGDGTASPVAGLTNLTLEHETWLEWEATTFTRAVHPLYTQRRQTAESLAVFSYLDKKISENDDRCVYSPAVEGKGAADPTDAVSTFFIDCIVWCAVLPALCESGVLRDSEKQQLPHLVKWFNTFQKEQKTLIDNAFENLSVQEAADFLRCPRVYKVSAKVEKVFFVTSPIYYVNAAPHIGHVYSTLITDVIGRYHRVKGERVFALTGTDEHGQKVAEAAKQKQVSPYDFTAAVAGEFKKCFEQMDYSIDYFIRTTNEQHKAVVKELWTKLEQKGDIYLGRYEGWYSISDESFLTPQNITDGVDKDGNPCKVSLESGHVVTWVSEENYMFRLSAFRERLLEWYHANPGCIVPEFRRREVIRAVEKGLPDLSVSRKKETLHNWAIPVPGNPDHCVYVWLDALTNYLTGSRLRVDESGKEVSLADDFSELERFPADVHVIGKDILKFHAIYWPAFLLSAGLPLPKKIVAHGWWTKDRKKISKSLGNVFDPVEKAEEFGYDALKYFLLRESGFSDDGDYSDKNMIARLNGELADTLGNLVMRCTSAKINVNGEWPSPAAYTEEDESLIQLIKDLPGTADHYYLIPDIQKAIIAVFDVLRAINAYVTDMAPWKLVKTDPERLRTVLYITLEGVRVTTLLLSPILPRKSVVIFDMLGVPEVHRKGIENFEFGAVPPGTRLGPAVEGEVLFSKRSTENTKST

[18] = molecular target: T4, Methionyl-tRNA synthetase, putative; assay type: functional, Trypanosoma brucei brucei strain 927/4 GUTat10.1; remark: listed apart in the source
[19] = Counterscreen for inhibitors of Trypanosoma brucei methionyl tRNA synthetase (MetRS): Luminescence-based cell-based high throughput dose response assay to identify compounds that are cytotoxic to Jurkat human T lymphocyte cells.; assay type: functional
[20] = HEK293 cell cytotoxicity, dose response, cytotoxicity control, cherry-picks, set 5 (AID 1053117); assay type: functional, cell-based
[21] = HepG2 cell cytotoxicity, dose response, cytotoxicity control, cherry-picked samples (AID 1159577); assay type: functional, cell-based
[22] = inhibitors of fibronectin matrix deposition, dose response, AH1F cells, Alexa488-FN fluorescence, cherry-picks (AID 1035475); assay type: functional, cell-based
[23] = A549 cell cytotoxicity, dose response, cytotoxicity control, cherry-picks, 26 µM top dose (AID 1053119); assay type: functional, cell-based
[24] = P. falciparum Dd2 growth inhibitors, dose response, SYBR Green, cherry-picked samples (AID 1159567); assay type: functional, cell-based
[25] = HepG2 cell cytotoxicity, dose response, cytotoxicity control, cherry-picks, set 5 (AID 1053118); assay type: functional, cell-based
cells [26] = test: cells; remark: listed apart in the source
INS1 = test: beta cell apoptosis inhibitors, cytokine rescue, dose response, luminescence, retest (AID 449756); assay type: functional, cell-based; details: Rattus norvegicus;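 note: cell death triggered by IL-1 beta plus TNF-alpha plus IFN-gamma mixture; protective hits raise ATP signal compared with cytokine alone wells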
[27] = system: Streptococcus sp. 'group A'; test: growth inhibition of control SK(-) GAS strain, dose response, counter-screen for streptokinase expression inhibitor project, luminescence, kanamycin, BacTiterGlo, confirmation (AID 1900); assay type: functional, organism-based
Streptokinase A = molecular target: T5, Streptokinase A (Streptococcus pyogenes serotype M1, UniProt P10520); test: S. pyogenes streptokinase expression inhibitors, potency, dose response, plasminogen activation absorbance, OD405 (AID 1914); assay type: functional, Streptococcus pyogenes M1 GAS;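 note: secreted streptokinase activity via plasminogen activation per viability signal from cell pellet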
T5 sequence (P10520 whole entry): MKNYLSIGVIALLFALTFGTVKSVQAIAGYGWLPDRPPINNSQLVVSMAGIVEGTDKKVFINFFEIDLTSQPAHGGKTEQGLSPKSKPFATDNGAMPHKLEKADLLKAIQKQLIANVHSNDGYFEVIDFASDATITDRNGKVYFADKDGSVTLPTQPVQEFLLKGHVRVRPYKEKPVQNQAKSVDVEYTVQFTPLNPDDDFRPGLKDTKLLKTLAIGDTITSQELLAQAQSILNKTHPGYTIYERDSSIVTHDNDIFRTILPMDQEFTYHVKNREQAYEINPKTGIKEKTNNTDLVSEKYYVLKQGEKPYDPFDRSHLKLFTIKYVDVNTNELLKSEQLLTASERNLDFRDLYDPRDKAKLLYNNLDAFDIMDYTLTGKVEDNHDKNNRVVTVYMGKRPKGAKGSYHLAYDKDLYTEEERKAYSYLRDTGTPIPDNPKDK

[28] = molecular target: Disintegrin and metalloproteinase domain-containing protein 17 (Homo sapiens, UniProt P78536); test: ADAM17 protease inhibitors, dose response, counter-screen for ADAM10 exosite inhibitor project, biochemical, quenched FRET substrate (AID 743253)
Chain of Disintegrin and metalloproteinase domain-containing protein 17 (P78536 whole entry, the tested form may be a part): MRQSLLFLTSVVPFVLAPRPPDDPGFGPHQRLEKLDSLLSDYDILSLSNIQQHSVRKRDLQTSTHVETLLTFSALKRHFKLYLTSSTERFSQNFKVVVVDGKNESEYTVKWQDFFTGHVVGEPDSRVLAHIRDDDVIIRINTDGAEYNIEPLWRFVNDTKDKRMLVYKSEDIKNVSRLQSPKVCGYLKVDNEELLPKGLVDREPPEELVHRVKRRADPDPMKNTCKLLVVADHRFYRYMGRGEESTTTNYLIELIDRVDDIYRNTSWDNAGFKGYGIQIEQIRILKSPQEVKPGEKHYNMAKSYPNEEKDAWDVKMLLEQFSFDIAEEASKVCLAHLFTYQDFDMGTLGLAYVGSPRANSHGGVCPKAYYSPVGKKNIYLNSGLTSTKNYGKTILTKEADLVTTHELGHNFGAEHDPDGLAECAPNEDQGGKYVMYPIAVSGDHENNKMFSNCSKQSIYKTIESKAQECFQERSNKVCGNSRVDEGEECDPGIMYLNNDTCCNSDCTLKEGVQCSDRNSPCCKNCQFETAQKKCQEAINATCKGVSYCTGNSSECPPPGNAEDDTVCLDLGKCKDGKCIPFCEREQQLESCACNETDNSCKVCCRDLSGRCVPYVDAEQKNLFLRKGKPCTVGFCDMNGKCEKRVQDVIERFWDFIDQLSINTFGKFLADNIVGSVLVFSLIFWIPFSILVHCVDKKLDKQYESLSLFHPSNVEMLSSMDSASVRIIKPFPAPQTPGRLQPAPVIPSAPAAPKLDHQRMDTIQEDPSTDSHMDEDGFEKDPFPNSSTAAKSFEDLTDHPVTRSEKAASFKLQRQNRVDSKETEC

Streptococcus = test: Group A Streptococcus viability loss, dose response, counter-screen for streptokinase expression inhibitor project, luminescence, BacTiterGlo (AID 1915); assay type: functional, organism-based;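 note: potency for reduction of bacterial viability or growth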

CSc1ccccc1-c1nnc(-c2ccccc2)o1
EC50 [1]: > 67.5 µM (inactive)
EC50 (cells [2]): > 67.5 µM (inactive)

CN(c1ccccc1)S(=O)(=O)c1cccc(NC(=O)CSc2nncs2)c1
AC50 [3]: 15.8 µM (active)
AC50 [4]: 4.3 µM (active)
AC50 [5]: 1.44 µM (active)
AC50 [6]: 2.6 µM (active)

Cc1cc2cc(CNS(=O)(=O)c3ccc4ccccc4c3)ccc2n1C
EC50 [7]: 6.29 µM (active)
IC50 (Fibrinogen beta chain [8]): 21 µM (inactive)
EC50 [9]: 6.2 µM (active)
IC50 [10]: 46.5 µM (inactive)
IC50 (Fibrinogen beta chain [11]): > 83.3 µM (inactive)
EC50 [12]: 14.4 µM (not active)
IC50 [13]: > 66 µM (inactive)
IC50 (Nonstructural protein 1): 46.8 µM (active)

COc1cc(C(=O)NC2CC3CCCC(C2)N3CC(=O)Nc2ccc(Cl)cc2)cc(OC)c1OC (configuration not stated)
IC50 [14]: > 79 µM (inactive)
IC50 [15]: > 79 µM (inactive)

O=C(NCc1nc2ccccc2[nH]1)C1=C[C@@H](c2csc3ccccc23)C[C@@H](OCCCCO)O1
IC50 [16]: 64.4 µM (inactive)
IC50 [17]: 1.91 µM (active)
IC50 [18]: 1.36 µM (active)
IC50 [19]: 80.2 µM (inactive)

CO[C@@H]1CN(C)C(=O)c2ccc(NC(=O)c3ccc(-c4ccccc4)cc3)cc2OC[C@@H](C)NC[C@H]1C
AC50 [20]: 12.1 µM (active)
AC50 [21]: 10.3 µM (active)
AC50 [22]: 19.6 µM (active)
AC50 [23]: 12.3 µM (active)
AC50 [24]: 8.67 µM (active)
AC50 [25]: 10.8 µM (active)

C#CCOc1ccc(C2C(C#N)=C(N)Oc3cc(O)ccc32)cc1 (configuration not stated)
AC50 (cells [26]): 3.61 µM (active)

O=C(NNc1ccccc1Br)C(O)(c1cccc(C(F)(F)F)c1)c1cccc(C(F)(F)F)c1
AC50 (INS1): 6.89 µM (active)
EC50 [27]: 3.48 µM (active)
EC50 (Streptokinase A): 2.13 µM (active)
IC50 [28]: > 69.5 µM (inactive)
EC50 (Streptococcus): 9.39 µM (active)
